Transport function data for 1 molecule are collected here from paper PMC3857843, “Multiple Transport-Active Binding Sites Are Available for a Single Substrate on Human P-Glycoprotein (ABCB1)” (PLoS ONE, 2013).

Holding throughout (assay): Transport of fluorescent substrates in BacMam-transduced HeLa cells (flow cytometry)
One data set has as its target Y307C/V982C mutant Pgp (Homo sapiens, UniProt P08183, C1074A/C1125A/C1227A/C137A/C431A/C717A/C956A/V982C/Y307C). To be noted: compared to cysless WT Pgp (taken as 100%), calcein-AM 0.5 µM 10 min, Rh123 […], other substrates 0.5 µM 45 min. How it is done:
(§1) The BacMam-Pgp virus (encoding cysless WT and the mutant Pgps) was added to 2.5 million HeLa cells at a titer of 50-60 viral particles per cell in 3 ml of DMEM and incubated at 37°C [30]. After 1 hr DMEM was added to make a total of 20 ml in the flask and these infected cells were further incubated for 3-4 hrs. 10 mM butyric acid was then added and the cells continued to incubate at 37°C. After 24 hrs, the cells were trypsinized, washed, counted and analyzed by flow cytometry for cell surface expression and the function of the wildtype and mutant Pgps.
(§2) The transport function of cysless WT and mutant Pgps was determined using fluorescent compounds with flow cytometry as previously described. […] Cells were washed with cold PBS and resuspended in PBS containing 0.1% BSA before analysis.

The next data set has as its target F978C mutant Pgp (Homo sapiens, UniProt P08183, C1074A/C1125A/C1227A/C137A/C431A/C717A/C956A/F978C). Particulars: compared to cysless WT Pgp (taken as 100%), calcein-AM 0.5 µM 10 min, Rh123 […], other substrates 0.5 µM 45 min. How it is done: as §1, §2
For data set [1], the target named is Y307C/Q725C/V982C mutant Pgp (Homo sapiens, UniProt P08183, C1074A/C1125A/C1227A/C137A/C431A/C717A/C956A/Q725C/V982C/Y307C). To be noted: Y307/Q725C/V982C in HeLa cells; compared to cysless WT Pgp (taken as 100%); calcein-AM 0.5 µM 10 min, Rh123 […], other substrates 0.5 µM 45 min. How it is done:
as §1, §2

The target of a further data set is F343C/V982C mutant Pgp (Homo sapiens, UniProt P08183, C1074A/C1125A/C1227A/C137A/C431A/C717A/C956A/F343C/V982C). To be noted: compared to cysless WT Pgp (taken as 100%), calcein-AM 0.5 µM 10 min, Rh123 […], other substrates 0.5 µM 45 min. How it is done:
as §1, §2

Another data set concerns the target F728C/V982C mutant Pgp (Homo sapiens, UniProt P08183, C1074A/C1125A/C1227A/C137A/C431A/C717A/C956A/F728C/V982C). Particulars: compared to cysless WT Pgp (taken as 100%), calcein-AM 0.5 µM 10 min, Rh123 […], other substrates 0.5 µM 45 min. How it is done: as §1, §2
In a further data set the target is Q725C/V982C mutant Pgp (Homo sapiens, UniProt P08183, C1074A/C1125A/C1227A/C137A/C431A/C717A/C956A/Q725C/V982C). To be noted: compared to cysless WT Pgp (taken as 100%), calcein-AM 0.5 µM 10 min, Rh123 […], other substrates 0.5 µM 45 min. How it is done: as §1, §2
The target in a further data set is F343C mutant Pgp (Homo sapiens, UniProt P08183, C1074A/C1125A/C1227A/C137A/C431A/C717A/C956A/F343C). To be noted: compared to cysless WT Pgp (taken as 100%), calcein-AM 0.5 µM 10 min, Rh123 […], other substrates 0.5 µM 45 min. How it is done:
as §1, §2

In another data set the target is F728C mutant Pgp (Homo sapiens, UniProt P08183, C1074A/C1125A/C1227A/C137A/C431A/C717A/C956A/F728C). To be noted: compared to cysless WT Pgp (taken as 100%), calcein-AM 0.5 µM 10 min, Rh123 […], other substrates 0.5 µM 45 min. How it is done:
as §1, §2

The target of another data set is Q725C mutant Pgp (Homo sapiens, UniProt P08183, C1074A/C1125A/C1227A/C137A/C431A/C717A/C956A/Q725C). To be noted: compared to cysless WT Pgp (taken as 100%), calcein-AM 0.5 µM 10 min, Rh123 […], other substrates 0.5 µM 45 min. How it is done:
as §1, §2

In a further data set the target is Y307C mutant Pgp (Homo sapiens, UniProt P08183, C1074A/C1125A/C1227A/C137A/C431A/C717A/C956A/Y307C). Particulars: compared to cysless WT Pgp (taken as 100%), calcein-AM 0.5 µM 10 min, Rh123 […], other substrates 0.5 µM 45 min. How it is done: as §1, §2
Another data set deals with V982C mutant Pgp (Homo sapiens, UniProt P08183, C1074A/C1125A/C1227A/C137A/C431A/C717A/C956A/V982C). To be noted: compared to cysless WT Pgp (taken as 100%), calcein-AM 0.5 µM 10 min, Rh123 […], other substrates 0.5 µM 45 min. How it is done:
as §1, §2

Take `CC(=O)OCOC(=O)CN(CC(=O)OCOC(C)=O)Cc1cc2c(cc1OC(C)=O)Oc1cc(OC(C)=O)c(CN(CC(=O)OCOC(C)=O)CC(=O)OCOC(C)=O)cc1C21OC(=O)c2ccccc21` [CalAM, calcein-AM]: the Transport function was 90-100% on Y307C/V982C mutant Pgp; 90-100% at F978C mutant Pgp; 90-100% in [1]; 90-100% on F343C/V982C mutant Pgp; 55-65% at F728C/V982C mutant Pgp; 90-100% at Q725C/V982C mutant Pgp. The Transport function on F343C mutant Pgp, on F728C mutant Pgp, at Q725C mutant Pgp, at Y307C mutant Pgp and on V982C mutant Pgp was 90-100% each time.
